Results taken from US20250032477A1, “COMPOUNDS, PHARMACEUTICAL COMPOSITIONS, AND METHODS FOR THE TREATMENT, PREVENTION, OR MANAGEMENT OF HYPERPROLIFERATIVE DISORDERS” (VINCERX PHARMA GMBH, priority 2021, published 2025).
Counter-ions that a name gives are not always drawn. Like-named read-outs stand apart in the source and are kept apart here.

Tests used:
786-O [1] = experiment: Cytotoxicity in vitro in the presence and absence of elastase (MTT); type: cell-based, human
Protocol: (§1) Cultivation of cells was performed according to standard procedures with the media recommended by the provider. The cells, in a total volume of 100 μL, were seeded in a 96-well plate with a white bottom (#3610). After a 24 h incubation period at 37° C. and […], the medium was exchanged by adding 90 μL fresh medium. The treatment started by adding the test compound in 10 μL of culture medium to the cells in triplicates. Concentrations ranging from 10^−5 M to 10^−13 M were chosen. Two identically treated sets of samples were prepared. One set was treated with the test compound alone, whereas to the second set the compound and 10 nM elastase was added followed by a 72 h incubation period at 37° C. and 5% CO2. The proliferation was detected using the MTT assay (ATCC). At the end of the incubation period the MTT reagent was added to all samples for 4 h. Lysis of the cells followed by addition of the detergent was done overnight. The formed dye was detected at 570 nm. The proliferation of untreated but otherwise identically handled cells was define as the […].

HT29 [2] = experiment: as above; type: cell-based, human
Protocol: as §1

NCI H292 [3] = experiment: as above; type: cell-based, human
Protocol: as §1

SUM149 [4] = experiment: as above; type: cell-based
Protocol: as §1

786-O [5] = experiment: Cytotoxicity assay (Version 2), automated, AC50, with or without elastase; type: cell-based, human
Protocol: as §1
(§2) The Cytotoxicity assay (Version 2) was performed as above described. Some changes were applied as the assays were performed in an automated fashion and the IC50 values determination was changed. Here the change in metabolic activity of the cells, in percent, was calculated by normalization of the measured values to the absorbance values of medium containing wells without cells (=−100%) and the absorbance of the DMSO-treated cells (=0%). AC50 values (activity concentration at −50%) were determined by means of a 4 parameter Hill-fit using GeneData Screener software.

HT29 [6] = experiment: as above; type: cell-based, human
Protocol: as §1, §2

NCI H292 [7] = experiment: as above; type: cell-based, human
Protocol: as §1, §2

SUM149 [8] = experiment: as above; type: cell-based
Protocol: as §1, §2

[9] = read-out: 786-O IC50 w elastase
[10] = read-out: NCI H292 IC 50 w elastase
[11] = read-out: SUM149 IC50 w elastase

Structure (SMILES) | IC50 (786-O [1]; [9]) | IC50 (786-O [1]; read-out: 786-O IC50 w/o) | IC50 (HT29 [2]; read-out: HT29 IC50 w elastase) | IC50 (HT29 [2]; read-out: HT29 IC50 w/o) | IC50 (NCI H292 [3]; [10]) | IC50 (NCI H292 [3]; read-out: NCI H292 IC 50 w/o) | IC50 (SUM149 [4]; [11]) | IC50 (SUM149 [4]; read-out: SUM149 IC50 w/o) | further results
CCCNC(=O)Nc1cccc(S(=O)(=O)Nc2cccc([C@@H](CC(=O)O)NC(=O)Nc3ccc(NC(=O)NCCOCCOCCOCCC(=O)N[C@@H](CC(=O)O)C(=O)N4CCC[C@H]4C(=O)N[C@H](C(=O)O[C@]4(CC)C(=O)OCc5c4cc4n(c5=O)Cc5c-4nc4cc(F)c(C)c6c4c5[C@@H](NC(=O)OCc4ccccc4)CC6)C(C)C)cc3)c2)c1 [Compound 3, (1S,9S)-1-{[(benzyloxy)carbonyl]amino}-9-ethyl-5-fluoro-4-methyl-10,13-dioxo-2,3,9,10,13,15-hexahydro-1H,12H-benzo[de]pyrano[3′,4′:6,7] indolizino[1,2-b]quinolin-9-yl N-(14-{4-[({(1R)-2-carboxy-1-[3-({3-[(propylcarbamoyl)amino]benzene-1-sulfonyl}amino)phenyl]ethyl}carbamoyl)amino]anilino}-14-oxo-4,7,10-trioxa-13-azatetradecanan-1-oyl)-L-alpha-aspartyl-L-prolyl-L-valinate] | 0.1 to 1 nM | 10 to 100 nM | 0.1 to 1 nM | > 100 nM | 0.01 to 0.1 nM | 1.1 to 10 nM | 0.01 to 0.1 nM | 10 to 100 nM | –
CCCNC(=O)Nc1cccc(S(=O)(=O)Nc2cccc([C@@H](CC(=O)O)NC(=O)Nc3ccc(NC(=O)NCCN(C)CCN(C)CCN(C)CC(=O)N[C@@H](CC(N)=O)C(=O)N4CCC[C@H]4C(=O)N[C@H](C(=O)O[C@]4(CC)C(=O)OCc5c4cc4n(c5=O)Cc5cc6cc7c(cc6nc5-4)OCO7)C(C)C)cc3)c2)c1 [Compound 6, (7S)-7-ethyl-8,11-dioxo-7,8,11,13-tetrahydro-2H,10H-[1,3]dioxolo[4,5-g]pyrano[3′,4′:6,7] indolizino[1,2-b]quinolin-7-yl N-{2-[{2-[{2-[({4-[({(1R)-2-carboxy-1-[3-({3-[(propylcarbamoyl)amino]benzene-1-sulfonyl}amino)phenyl]ethyl}carbamoyl)amino]phenyl}carbamoyl)amino]ethyl}(methyl)amino]ethyl}(methyl)amino]ethyl}-N-methylglycyl-L-asparaginyl-L-prolyl-L-valinate] | – | – | – | – | – | – | – | – | IC50 (786-O [1]; 786-O cells, with 10 nM elastase, 72 h, MTT, read-out: 786-O IC50 w elastase): 0.01 to 0.1 nM; IC50 (786-O [1]; 786-O cells, without elastase, 72 h, MTT, read-out: 786-O IC50 w/o): 1.1 to 10 nM; IC50 (HT29 [2]; HT29 cells, with 10 nM elastase, 72 h, MTT, read-out: HT29 IC50 w elastase): 0.01 to 0.1 nM; IC50 (HT29 [2]; HT29 cells, without elastase, 72 h, MTT, read-out: HT29 IC50 w/o): 1.1 to 10 nM; IC50 (NCI H292 [3]; NCI H292 cells, with 10 nM elastase, 72 h, MTT, read-out: NCI H292 IC 50 w elastase): 0.01 to 0.1 nM; IC50 (NCI H292 [3]; NCI H292 cells, without elastase, 72 h, MTT, read-out: NCI H292 IC 50 w/o): 1.1 to 10 nM; IC50 (SUM149 [4]; SUM149 cells, with 10 nM elastase, 72 h, MTT, read-out: SUM149 IC50 w elastase): < 0.01 nM; IC50 (SUM149 [4]; SUM149 cells, without elastase, 72 h, MTT, read-out: SUM149 IC50 w/o): 0.1 to 1 nM
CCCNC(=O)Nc1cccc(S(=O)(=O)Nc2cccc([C@H](CC(=O)O)NC(=O)Nc3ccc(NC(=O)NCCOCCOCCOCCC(=O)N[C@@H](CC(=O)O)C(=O)N4CCC[C@H]4C(=O)N[C@H](C(=O)O[C@]4(CC)C(=O)OCc5c4cc4n(c5=O)Cc5c-4nc4cc(F)c(C)c6c4c5[C@@H](NC(C)=O)CC6)C(C)C)cc3)c2)c1 [Compound 13, disodium (1S,9S)-1-acetamido-9-ethyl-5-fluoro-4-methyl-10,13-dioxo-2,3,9,10,13,15-hexahydro-1H,12H-benzo[de]pyrano[3′,4′:6,7]indolizino[1,2-b]quinolin-9-yl 1-[(2S)-2-(carboxylatomethyl)-17-{4-[({(1S)-2-carboxylato-1-[3-({3-[(propylcarbamoyl)amino]benzene-1-sulfonyl}amino)phenyl]ethyl}carbamoyl)amino]anilino}-4,17-dioxo-7,10,13-trioxa-3,16-diazaheptadecanan-1-oyl]-L-prolyl-L-valinate] | 0.01 to 0.1 nM | 10 to 100 nM | 0.1 to 1 nM | > 100 nM | 0.01 to 0.1 nM | 1.1 to 10 nM | 0.01 to 0.1 nM | 1.1 to 10 nM | –
CCCNC(=O)Nc1cccc(S(=O)(=O)Nc2cccc([C@H](CC(=O)O)NC(=O)Nc3ccc(NC(=O)NCCOCCOCCOCCC(=O)N[C@@H](CC(=O)O)C(=O)N4CCC[C@H]4C(=O)N[C@H](C(=O)O[C@]4(CC)C(=O)OCc5c4cc4n(c5=O)Cc5cc6cc7c(cc6nc5-4)OCO7)C(C)C)cc3)c2)c1 [Compound 15, (7S)-7-ethyl-8,11-dioxo-7,8,11,13-tetrahydro-2H,10H-[1,3]dioxolo[4,5-g]pyrano [3′,4′:6,7]indolizino[1,2-b]quinolin-7-yl N-(14-{4-[({(1S)-2-carboxy-1-[3-({3-[(propylcarbamoyl)amino]benzene-1-sulfonyl}amino)phenyl]ethyl}carbamoyl)amino]anilino}-14-oxo-4,7,10-trioxa-13-azatetradecanan-1-oyl)-L-alpha-aspartyl-L-prolyl-L-valinate-bis sodium salt] | 0.01 to 0.1 nM | 10 to 100 nM | 0.01 to 0.1 nM | 10 to 100 nM | 0.01 to 0.1 nM | 1.1 to 10 nM | < 0.01 nM | 1.1 to 10 nM | –
CC[C@@]1(O)C(=O)OCc2c1cc1n(c2=O)Cc2c-1nc1cc(F)c(C)c3c1c2[C@@H](N(C)C)CC3 [Compound 18, (1S,9S)-1-(dimethylamino)-9-ethyl-5-fluoro-9-hydroxy-4-methyl-1,2,3,9,12,15-hexahydro-10H,13H-benzo[de]pyrano[3′,4′:6,7]indolizino[1,2-b]quinoline-10,13-dione] | – | – | – | – | – | – | – | – | AC50 (786-O [5]; Homo sapiens, 786-0, read-out: 786-O AC50 +elastase): 11 to 100 nM; AC50 (786-O [5]; Homo sapiens, 786-0, read-out: 786-O AC50 −elastase): 11 to 100 nM; AC50 (HT29 [6]; Homo sapiens, HT-29, read-out: HT29 AC50 +elastase): 1.1 to 10 nM; AC50 (HT29 [6]; Homo sapiens, HT-29, read-out: HT29 AC50 −elastase): 11 to 100 nM; AC50 (NCI H292 [7]; Homo sapiens, NCI-H292, read-out: NCI H292 AC50 +elastase): 1.1 to 10 nM; AC50 (NCI H292 [7]; Homo sapiens, NCI-H292, read-out: NCI H292 AC50 −elastase): 1.1 to 10 nM; AC50 (SUM149 [8]; SUM149, read-out: SUM149 AC50 +elastase): 1.1 to 10 nM; AC50 (SUM149 [8]; SUM149, read-out: SUM149 AC50 −elastase): 1.1 to 10 nM
CCCNC(=O)Nc1cccc(S(=O)(=O)Nc2cccc([C@@H](CC(=O)O)NC(=O)Nc3ccc(NC(=O)NCCOCCOCCOCCC(=O)N[C@@H](CC(=O)O)C(=O)N4CCC[C@H]4C(=O)N[C@H](C(=O)O[C@]4(CC)C(=O)OCc5c4cc4n(c5=O)Cc5c-4nc4cc(F)c(C)c6c4c5[C@@H](N(CC)CC)CC6)C(C)C)cc3)c2)c1 [Compound 19, (1S,9S)-1-(diethylamino)-9-ethyl-5-fluoro-4-methyl-10,13-dioxo-2,3,9,10,13,15-hexahydro-1H,12H-benzo[de]pyrano[3′,4′:6,7]indolizino[1,2-b]quinolin-9-yl N-(14-{4-[({(1R)-2-carboxy-1-[3-({3-[(propylcarbamoyl)amino]benzene-1-sulfonyl}amino)phenyl]ethyl}carbamoyl)amino]anilino}-14-oxo-4,7,10-trioxa-13-azatetradecanan-1-oyl)-L-alpha-aspartyl-L-prolyl-L-valinate] | – | – | – | – | – | – | – | – | AC50 (786-O [5]; 786-O cells, Version 2, with elastase, activity concentration at −50%, read-out: 786-O AC50 +elastase): 1.1 to 10 nM; AC50 (786-O [5]; 786-O cells, Version 2, without elastase, activity concentration at −50%, read-out: 786-O AC50 −elastase): > 100 nM; AC50 (HT29 [6]; HT29 cells, Version 2, with elastase, activity concentration at −50%, read-out: HT29 AC50 +elastase): 11 to 100 nM; AC50 (HT29 [6]; HT29 cells, Version 2, without elastase, activity concentration at −50%, read-out: HT29 AC50 −elastase): > 100 nM; AC50 (NCI H292 [7]; NCI H292 cells, Version 2, with elastase, activity concentration at −50%, read-out: NCI H292 AC50 +elastase): 11 to 100 nM; AC50 (NCI H292 [7]; NCI H292 cells, Version 2, without elastase, activity concentration at −50%, read-out: NCI H292 AC50 −elastase): > 100 nM; AC50 (SUM149 [8]; SUM149 cells, Version 2, with elastase, activity concentration at −50%, read-out: SUM149 AC50 +elastase): 1.1 to 10 nM; AC50 (SUM149 [8]; SUM149 cells, Version 2, without elastase, activity concentration at −50%, read-out: SUM149 AC50 −elastase): > 100 nM
